The experiment addresses c-kit mutant D816V (Homo sapiens (Human), UniProt P10721, D816V/DEL694-753). In words: c-Kit mutant D816V biochemical assay (AlphaScreen). The conditions noted are these: c-kit D816V biochemical inhibitory activity. In short, it runs like this: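 His-tagged c-Kit D816V kinase domain (551-934, Δ694-753, E. coli) phosphorylating 30 nM biotin-(E4Y)10 at 10 μM ATP in HEPES pH 7.2 with Mg/Mn, 5% DMSO, 30 min at room temperature. PY20-acceptor/streptavidin-donor AlphaScreen detection after EDTA stop. IC50 from 8-point 1:3 titration.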
In general terms: Alpha assays give light when donor and acceptor beads are brought close together.
c-kit mutant D816V, sequence (P10721 other isoform, or with tags, fused parts or gaps D816V/del 694-753): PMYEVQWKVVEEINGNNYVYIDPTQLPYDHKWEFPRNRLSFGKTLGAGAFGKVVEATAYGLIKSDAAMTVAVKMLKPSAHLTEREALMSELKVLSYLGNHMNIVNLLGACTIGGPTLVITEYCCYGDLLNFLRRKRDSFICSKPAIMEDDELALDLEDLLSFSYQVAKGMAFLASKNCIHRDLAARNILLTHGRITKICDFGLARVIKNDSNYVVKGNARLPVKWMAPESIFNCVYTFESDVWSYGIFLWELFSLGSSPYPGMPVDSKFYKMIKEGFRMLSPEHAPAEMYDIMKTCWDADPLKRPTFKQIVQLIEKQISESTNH
In turn, `Cc1nn(C2CN(C(=O)OC(C)(C)C)C2)cc1-c1cc2cc(NC(=O)c3[nH]nc(C)c3C)cnc2[nH]1` [P-2285, tert-butyl 3-[4-[5-[(3,4-dimethyl-1H-pyrazole-5-carbonyl)amino]-1H-pyrrolo[2,3-b]pyridin-2-yl]-3-methyl-pyrazol-1-yl]azetidine-1-carboxylate] displayed an IC50 of 0.0001 to 1 µM.
`Cc1nn(C2CNC2)cc1-c1cc2cc(NC(=O)c3[nH]nc(C)c3C)cnc2[nH]1` [P-2286, N-[2-[1-(azetidin-3-yl)-3-methyl-pyrazol-4-yl]-1H-pyrrolo[2,3-b]pyridin-5-yl]-3,4-dimethyl-1H-pyrazole-5-carboxamide] showed an IC50 of 0.0001 to 1 µM.
With `O=C(Nc1cnc2[nH]c(-c3ccccc3)cc2c1)c1cccc2n[nH]cc12` [P-2289, N-(2-phenyl-1H-pyrrolo[2,3-b]pyridin-5-yl)-2H-indazole-4-carboxamide], the IC50 fell in the range of 1 to 10 µM.
`COC(=O)c1cccc(C(=O)Nc2cnc3[nH]c(-c4ccccc4)cc3c2)c1` [P-2290, methyl 3-[(2-phenyl-1H-pyrrolo[2,3-b]pyridin-5-yl)carbamoyl]benzoate]: the IC50 was in the range of 10 to 200 µM.
For `O=C(O)c1cccc(C(=O)Nc2cnc3[nH]c(-c4ccccc4)cc3c2)c1` [P-2291, 3-[(2-phenyl-1H-pyrrolo[2,3-b]pyridin-5-yl)carbamoyl]benzoic acid], the IC50 is 10 to 200 µM.
Under `Cc1n[nH]c(C(=O)Nc2cnc3[nH]c(-c4ccc(C(=O)O)c(F)c4)cc3c2)c1C` [P-2292, 4-[5-[(3,4-dimethyl-1H-pyrazole-5-carbonyl)amino]-1H-pyrrolo[2,3-b]pyridin-2-yl]-2-fluoro-benzoic acid] stands 0.0001 to 1 µM; under `Cc1n[nH]c(C(=O)Nc2cnc3[nH]c(-c4cccc(CC(=O)O)c4)cc3c2)c1C` [P-2293, 2-[3-[5-[(3,4-dimethyl-1H-pyrazole-5-carbonyl)amino]-1H-pyrrolo[2,3-b]pyridin-2-yl]phenyl]acetic acid], 0.0001 to 1 µM.
Regarding `Cc1n[nH]c(C(=O)Nc2cnc3[nH]c(-c4ccc(C5(C(=O)O)CC5)cc4)cc3c2)c1C` [P-2294, 1-[4-[5-[(3,4-dimethyl-1H-pyrazole-5-carbonyl)amino]-1H-pyrrolo[2,3-b]pyridin-2-yl]phenyl]cyclopropanecarboxylic acid], the IC50 lay within 0.0001 to 1 µM.
Molecule `Cc1n[nH]c(C(=O)Nc2cnc3[nH]c(-c4ccc(CC(=O)O)cc4)cc3c2)c1C` [P-2295, 2-[4-[5-[(3,4-dimethyl-1H-pyrazole-5-carbonyl)amino]-1H-pyrrolo[2,3-b]pyridin-2-yl]phenyl]acetic acid] yielded an IC50 of 0.0001 to 1 µM.
For `Cc1cc(-c2cc3cc(NC(=O)c4[nH]nc(C)c4C)cnc3[nH]2)ccc1C(=O)O` [P-2296, 4-[5-[(3,4-dimethyl-1H-pyrazole-5-carbonyl)amino]-1H-pyrrolo[2,3-b]pyridin-2-yl]-2-methyl-benzoic acid], the IC50 lay in the range of 0.0001 to 1 µM.
`Cc1n[nH]c(C(=O)Nc2cnc3[nH]c(-c4cccc(C(=O)O)c4C)cc3c2)c1C` [P-2297, 3-[5-[(3,4-dimethyl-1H-pyrazole-5-carbonyl)amino]-1H-pyrrolo[2,3-b]pyridin-2-yl]-2-methyl-benzoic acid]: the IC50 was 0.0001 to 1 µM.

A word on the IC50: it is the concentration that inhibits the measured activity by half.

Source of the values: US10301280B2 (Plexxikon Inc., priority 2012, dated 2019).
